Measured values from EP0106335B1, “Pharmaceutical composition and a method for enhancing the absorption of a pharmaceutically active compound” (Tanabe Seiyaku Co., Ltd., priority 1982, dated 1984).

Experiment: Absorption enhancing effect of co-administered diltiazem hydrochloride on plasma drug concentration after oral administration (Experiment 1)
Assay type: in vivo
Conditions: male beagle dogs fasted for 24 hours
Method: Male beagle dogs (body weight: 12 to 14 kg; one group: 3 to 8 beagle dogs) fasted for 24 hours were used in each groups. A drug having an absolute bioavailability of not more than 20 % and diltiazem hydrochloride were administered orally to the beagle dogs. After one week intervals, the drug only was administered orally to the same beagle dogs. The plasma drug concentration was examined at intervals by TCL densito metry if the drug was timepidium bromide; or by high-peformance liquid chromatography if the drug was tipepidine hibenzate or carbazochrome sodium sulfate. Based on the results obtained above, the absorption enhancing effect of diltiazem hydrochloride was calculated by the following formula; [formula]

Structure (SMILES): CN1CCCC(=C(c2cccs2)c2cccs2)C1 [Tipepidine hibenzate, 3-(di-2-thienylmethylene)-1-methylpiperidine]
- Absorption enhancing effect (drug 50 mg with diltiazem hydrochloride 60 mg versus drug only, plasma drug concentration by high-performance liquid chromatography): 2.1

Structure (SMILES): CN1C2=CC(=O)C(=NNC(N)=O)C=C2CC1S(=O)(=O)O (stereo not drawn) [Carbazochrome sodium sulfonate, 1-methyl-5-semicarbazono-6-oxo-2,3,5,6-tetrahydroindole-2-sulfonic acid]
- Absorption enhancing effect (drug 100 mg with diltiazem hydrochloride 60 mg versus drug only, plasma drug concentration by high-performance liquid chromatography): 1.9

Structure (SMILES): COC1CC(=C(c2cccs2)c2cccs2)C[N+](C)(C)C1 (stereo not drawn) [Timepidium bromide, 1,1-dimethyl-5-methoxy-3-(dithien-2-yl-methylene)-piperidinium halide]
- Absorption enhancing effect (drug 300 mg with diltiazem hydrochloride 30 mg versus drug only, plasma drug concentration by TLC densitometry): 2.3
